Measurements published in patent publication US6548096B1, “Aspartyl dipeptide ester derivatives and sweeteners” (Ajinomoto Co., Inc., priority 1998, dated 2003).
Where two headings read alike, the source gives them in different places.

Columns and labels:
[1] = as reported in WO 94/11391 (U.S. Pat. No. 5,480,668); cited from earlier work
[2] = Sensory evaluation of sweetening potency relative to sugar; type: in vivo; settings: for sweetening potency: Relative to sweetening potency of a 4% sucrose aqueous solution; for Sweetening potency (relative to sugar): times that of sugar, sensory evaluation
From the text: For example, the sweetening potency of N-[N-[3(3-methyl-4-hydroxyphenyl)propyl]-L-α-aspartyl]-L-phenylalanine 1-methyl ester was approximately 35,000 times that of sugar; that of N-[N-[3-(2-hydroxy-4-methylphenyl)propyl]-L-α-aspartyl]-L-α-phenylalanine 1-methyl ester was approximately 30,000 times that of sugar; that of N-[N-[3-(3-hydroxy-4-methoxyphenyl)propyl]-L-α-aspartyl]-L-phenylalanine 1-methyl ester was approximately 20,000 times that of sugar; that of N-[N-[3-(2-hydroxy-4-methoxyphenyl)propyl]-L-α-aspartyl]-L-phenylalanine 1-methyl ester was approximately 20,000 times that of sugar; that of N-[N-[3-(3-hydroxy-4-methylphenyl)propyl]-L-α-aspartyl]-L-phenylalanine 1-methyl ester was approximately 15,000 times that of sugar; that of N-(N-(3-(3-hydroxyphenyl)propyl]-L-α-aspartyl]-L-phenylalanine 1-methyl ester was approximately 8,000 times that of sugar; that of N-[N-(3-(4-methoxyphenyl)propyl]-L-α-aspartyl]-L-phenylalanine 1-methyl ester was approximately 6,500 times that of sugar; and that of N-(N-[3-(3-hydroxy-4-methoxyphenyl)propyl]-L-α-aspartyl]-L-tyrosine 1-methyl ester was approximately 16,000 times that of sugar.
The structures and the results of the sensory evaluation of aspartyl dipeptide derivatives represented by formula (2) are shown in Table 1. [drawing 3]

Row | Compound | sweetening potency [2] | Sweetening potency (relative to sugar) [2] | also measured
1 | COC(=O)[C@H](Cc1ccccc1)NC(=O)[C@H](CC(=O)O)NCCCc1ccccc1 [N-[N-(3-phenylpropyl)-L-α-aspartyl]-L-phenylalanine-1-methyl ester] | – | – | sweetening potency [1]: 1,500 times that of sugar
2 | COC(=O)[C@H](Cc1ccccc1)NC(=O)[C@H](CC(=O)O)NCCCc1ccc(OC)cc1OC [Compound 14, N-[N-[3-(2,4-dimethoxyphenyl)propyl]-L-α-aspartyl]-L-phenylalanine 1-methyl ester] | 4000 | 4,000 times | –
3 | COC(=O)[C@H](Cc1ccccc1)NC(=O)[C@H](CC(=O)O)NCCCc1ccc2c(c1)OCO2 [Compound 3, N-[N-[3-(3,4-methylenedioxyphenyl)propyl]-L-α-aspartyl]-L-phenylalanine 1-methyl ester] | 5000 | 5,000 times | –
4 | COC(=O)[C@H](Cc1ccccc1)NC(=O)[C@H](CC(=O)O)NCCCc1ccc(C)c(O)c1 [Compound 17, N-[N-[3-(3-hydroxy-4-methylphenyl)propyl]-L-α-aspartyl]-L-phenylalanine 1-methyl ester] | 15000 | – | Sweetening potency (relative to sugar) ([2]; listed as Example 18): 15,000 times
5 | COC(=O)[C@H](Cc1ccccc1)NC(=O)[C@H](CC(=O)O)NCCCc1ccc(OC)c(C)c1 [Compound 18, N-[N-[3-(3-methyl-4-methoxyphenyl)propyl]-L-α-aspartyl]-L-phenylalanine 1-methyl ester] | 8000 | 8,000 times | –
6 | COC(=O)[C@H](Cc1ccccc1)NC(=O)[C@H](CC(=O)O)NCCCc1ccc(C)cc1O [Compound 13, N-[N-[3-(2-hydroxy-4-methylphenyl)propyl]-L-α-aspartyl]-L-phenylalanine 1-methyl ester] | 30000 | – | Sweetening potency (relative to sugar) ([2]; listed as Example 14): 30,000 times; Sweetening potency (relative to sugar) ([2]; listed as N-[N-[3-(2-hydroxy-4-methylphenyl)propyl]-L-α-aspartyl]-L-α-phenylalanine 1-meth): approximately 30,000 times
7 | COC(=O)[C@H](Cc1ccccc1)NC(=O)[C@H](CC(=O)O)NCCCc1ccc(C)c(O)c1 | – | approximately 15,000 times | –
8 | COC(=O)[C@H](Cc1ccccc1)NC(=O)[C@H](CC(=O)O)NCCCc1ccc(OC)c(O)c1 [Compound 1, N-[N-[3-(3-hydroxy-4-methoxyphenyl)propyl]-L-α-aspartyl]-L-phenylalanine 1-methyl ester] | 20000 | – | Sweetening potency (relative to sugar) ([2]; listed as Example 1): 20,000 times
9 | COC(=O)[C@H](Cc1ccccc1)NC(=O)[C@H](CC(=O)O)NCCCc1cccc(O)c1 [Compound 7, N-[N-[3-(3-hydroxyphenyl)propyl]-L-α-aspartyl]-L-phenylalanine 1-methyl ester] | 8000 | approximately 8,000 times | Sweetening potency (relative to sugar) ([2]; listed as Example 8): 8,000 times
10 | COC(=O)[C@H](Cc1ccccc1)NC(=O)[C@H](CC(=O)O)NCCCc1ccc(OC)c(OC)c1 [Compound 2, N-[N-[3-(3,4-dimethoxyphenyl)propyl]-L-α-aspartyl]-L-phenylalanine 1-methyl ester] | 2500 | 2,500 times | –
11 | COC(=O)[C@H](Cc1ccccc1)NC(=O)[C@H](CC(=O)O)NCCC(C)(C)C [N-[N-(3,3-dimethylbutyl)-L-α-aspartyl]-L-phenylalanine 1-methyl ester] | – | – | sweetening potency [1]: 10,000 times that of sugar
12 | COC(=O)[C@H](Cc1ccccc1)NC(=O)[C@H](CC(=O)O)NCCCc1cc(OC)cc(OC)c1 [Compound 19, N-[N-[3-(3,5-dimethoxyphenyl)propyl]-L-α-aspartyl]-L-phenylalanine 1-methyl ester] | 800 | 800 times | –
13 | COC(=O)[C@H](Cc1ccccc1)NC(=O)[C@H](CC(=O)O)NCCCc1ccc(O)c(OC)c1 [N-[N-[3-(3-methoxy-4-hydroxyphenyl)propyl]-L-α-aspartyl]-L-phenylalanine 1-methyl ester] | – | – | sweetening potency [1]: 2,500 times that of sugar
14 | COC(=O)[C@H](Cc1ccccc1)NC(=O)[C@H](CC(=O)O)NCCCc1cccc(OC)c1 [Compound 8, N-[N-[3-(3-Methoxyphenyl)propyl]-L-α-aspartyl]-L-phenylalanine 1-Methyl Ester] | 3500 | 3,500 times | –
15 | COC(=O)[C@H](Cc1ccccc1)NC(=O)[C@H](CC(=O)O)NCCCc1cccc(OC)c1O [Compound 11, N-[N-[3-(2-hydroxy-3-methoxyphenyl)propyl]-L-α-aspartyl]-L-phenylalanine 1-methyl ester] | 10000 | 10,000 times | –
16 | COC(=O)[C@H](Cc1ccc(O)cc1)NC(=O)[C@H](CC(=O)O)NCCCc1ccc(OC)c(O)c1 [Compound 9, N-[N-[3-(3-hydroxy-4-methoxyphenyl)propyl]-L-α-aspartyl]-L-tyrosine 1-methyl ester] | 16000 | approximately 16,000 times | Sweetening potency (relative to sugar) ([2]; listed as Example 10): 16,000 times
17 | COC(=O)[C@H](Cc1ccccc1)NC(=O)[C@H](CC(=O)O)NCCCc1ccc(O)cc1 [Compound 4, N-[N-[3-(4-hydroxyphenyl)propyl]-L-α-aspartyl]-L-phenylalanine 1-methyl ester] | 5000 | 5,000 times | –
18 | COC(=O)[C@H](Cc1ccccc1)NC(=O)[C@H](CC(=O)O)NCCCc1ccc(OC)cc1O [Compound 10, N-[N-[3-(2-hydroxy-4-methoxyphenyl)propyl]-L-α-aspartyl]-L-phenylalanine 1-methyl ester] | 20000 | – | Sweetening potency (relative to sugar) ([2]; listed as Example 11): 20,000 times
19 | CCOc1cc(OC)ccc1CCCN[C@@H](CC(=O)O)C(=O)N[C@@H](Cc1ccccc1)C(=O)OC [Compound 15, N-[N-[3-(2-Ethoxy-4-methoxyphenyl)propyl]-L-α-aspartyl]-L-phenylalanine 1-Methyl Ester] | 2500 | 2,500 times | –
20 | COC(=O)[C@H](Cc1ccccc1)NC(=O)[C@H](CC(=O)O)NCCCc1cc(OC)ccc1O [Compound 12, N-[N-[3-(2-hydroxy-5-methoxyphenyl)propyl]-L-α-aspartyl]-L-phenylalanine 1-methyl ester] | 1500 | 1,500 times | –
21 | COC(=O)[C@H](Cc1ccccc1)NC(=O)[C@H](CC(=O)O)NCCCc1ccc(C)cc1 [Compound 21, N-[N-[3-(4-Methylphenyl)propyl]-L-α-aspartyl]-L-phenylalanine 1-Methyl Ester] | 4000 | 4,000 times | –
22 | COC(=O)[C@H](Cc1ccccc1)NC(=O)[C@H](CC(=O)O)NCCCc1ccc(OCCO)cc1 [Compound 20, N-[N-[3-(4-(2-Hydroxyethoxy)phenyl)propyl]-L-α-aspartyl]-L-phenylalanine 1-Methyl Ester] | 1000 | 1,000 times | –
23 | COC(=O)[C@H](Cc1ccccc1)NC(=O)[C@H](CC(=O)O)NCCCc1ccc(OC)cc1 [Compound 5, N-[N-[3-(4-methoxyphenyl)propyl]-L-α-aspartyl]-L-phenylalanine 1-methyl ester] | 6500 | – | Sweetening potency (relative to sugar) ([2]; listed as Example 5): 6,500 times; Sweetening potency (relative to sugar) ([2]; listed as N-[N-(3-(4-methoxyphenyl)propyl]-L-α-aspartyl]-L-phenylalanine 1-methyl ester)): approximately 6,500 times
24 | COC(=O)[C@H](Cc1ccccc1)NC(=O)[C@H](CC(=O)O)NCCCc1ccc(OC)cc1O | – | approximately 20,000 times | –
25 | CCOc1ccc(CCCN[C@@H](CC(=O)O)C(=O)N[C@@H](Cc2ccccc2)C(=O)OC)cc1 [Compound 6, N-[N-[3-(4-Ethoxyphenyl)propyl]-L-α-aspartyl]-L-phenylalanine 1-Methyl Ester] | 1500 | 1,500 times | –
26 | COC(=O)[C@H](Cc1ccccc1)NC(=O)[C@H](CC(=O)O)NCCCc1ccc(OC)c(O)c1 | – | approximately 20,000 times | –
27 | COC(=O)[C@H](Cc1ccccc1)NC(=O)[C@H](CC(=O)O)NCCCc1ccc(O)c(C)c1 [Compound 16, N-[N-[3-(3-methyl-4-hydroxyphenyl)propyl]-L-α-aspartyl]-L-phenylalanine 1-methyl ester] | 35000 | approximately 35,000 times | Sweetening potency (relative to sugar) ([2]; listed as Example 17): 35,000 times
